What all share (format): functional
The test system of assay [1] is Rattus norvegicus. Briefly: % protection of glutamate pyruvate transaminase level, against thioacetamide-induced hepatic damage in rats, at 6 mg/Kg peroral dose.
Assay [2] relates to Rattus norvegicus. The assay is described as follows: Tested for hepatoprotective activity against thioacetamide-induced hepatic damage in rat at 6 mg/kg, expressed as % protection afforded in ALP levels.
For assay [3], the system named is Rattus norvegicus. The assay is described as follows: % protection measured by glutamate oxaloacetate transaminase level, against thioacetamide-induced hepatic damage in rats, at 6 mg/Kg peroral dose.
The test system of assay [4] is Rattus norvegicus. Briefly: Tested for hepatoprotective activity against thioacetamide-induced hepatic damage in rat at 6 mg/kg, expressed as % protection afforded in GIDH levels.
Assay [5] relates to Rattus norvegicus. Briefly: Tested for hepatoprotective activity against thioacetamide-induced hepatic damage in rat at 6 mg/kg, expressed as % protection afforded in ACP levels.

For the compound `N#CC(C(=O)c1ccccc1)=C1SCCCS1`, the Protection with Rattus norvegicus [1], in the assay on Rattus norvegicus [2], in the assay on Rattus norvegicus [3], in the assay on Rattus norvegicus [4] and with Rattus norvegicus [5] was 0% each time.

Turning to `CCOC(=O)C(C#N)=C1SCCS1`, the Protection came to 73% in the assay with Rattus norvegicus [1]; 11% in the assay on Rattus norvegicus [2]; 74% in the assay on Rattus norvegicus [3]; 46% with Rattus norvegicus [4]; 35% in the assay on Rattus norvegicus [5].

For `CCOC(=O)C(C#N)=C1SCCCS1`, the Protection is reported as 59% with Rattus norvegicus [1]; 76% in the assay with Rattus norvegicus [2]; 84% in the assay on Rattus norvegicus [3]; 0% with Rattus norvegicus [4]; 0% in the assay with Rattus norvegicus [5].

As to `CCOC(=O)C(C(=O)c1ccccc1)=C1SCCCS1`, the Protection in the assay on Rattus norvegicus [1] stood at 45%; with Rattus norvegicus [2], 0%; in the assay with Rattus norvegicus [3], 35%; in the assay with Rattus norvegicus [4], 23%; with Rattus norvegicus [5], 7%.

In the case of `CCN(CC)C(=S)SC(C(=O)c1ccc(Cl)cc1)=C1SCCS1`, the Protection in the assay on Rattus norvegicus [1] amounted to 0%; with Rattus norvegicus [2], 0%; in the assay with Rattus norvegicus [3], 46%; with Rattus norvegicus [4], 5%; with Rattus norvegicus [5], 27%.

As for `COC(=O)C(C(C)=O)=C1SCCS1`, the Protection was 0% in the assay on Rattus norvegicus [1]; 0% with Rattus norvegicus [2]; 7% with Rattus norvegicus [3]; 0% in the assay on Rattus norvegicus [4]; 9% in the assay with Rattus norvegicus [5].

For the compound `O=C(c1ccc(Cl)cc1)c1sc(=S)sc1SCc1ccccc1`, the Protection with Rattus norvegicus [1] stood at 39%; in the assay with Rattus norvegicus [2], 3%; in the assay on Rattus norvegicus [3] it was 80%; with Rattus norvegicus [4] it was 15%; in the assay with Rattus norvegicus [5] it was 4%.

Take SILYMARIN: the Protection in the assay on Rattus norvegicus [1] amounted to 47.2%; in the assay with Rattus norvegicus [2], 47%; with Rattus norvegicus [3], 50.1%; in the assay with Rattus norvegicus [4], 39.8%; in the assay with Rattus norvegicus [5], 43.6%.

For `CC(C)OC(=O)C(C(=O)OC(C)C)=C1SCCS1` [ISOPROTHIOLANE], the Protection in the assay with Rattus norvegicus [1] is recorded as 77%; with Rattus norvegicus [2], 0%; with Rattus norvegicus [3], 92%; in the assay with Rattus norvegicus [4] it was 0%; in the assay on Rattus norvegicus [5], 0%.

Regarding `CC(=O)C(C(C)=O)=C1SCCS1`, the Protection in the assay on Rattus norvegicus [1] amounted to 40%; in the assay on Rattus norvegicus [2] it was 0%; with Rattus norvegicus [3] it was 67%; in the assay on Rattus norvegicus [4], 8%; with Rattus norvegicus [5], 0%.

In the case of `N#Cc1c(-c2ccccc2)cc(S)sc1=N`, the Protection is listed as 35% with Rattus norvegicus [1]; 30% with Rattus norvegicus [2]; 41% in the assay with Rattus norvegicus [3]; 47% with Rattus norvegicus [4]; 47% in the assay on Rattus norvegicus [5].

Regarding `N#Cc1c(SCCS)n[nH]c1N`, the Protection is on record as 0% in the assay on Rattus norvegicus [1]; 0% in the assay with Rattus norvegicus [2]; 0% in the assay with Rattus norvegicus [3]; 0% in the assay with Rattus norvegicus [4]; 9% in the assay with Rattus norvegicus [5].

Regarding `COC(=O)C(C(C)=O)=C1SCCCS1`, the Protection was found to be 0% in the assay on Rattus norvegicus [1]; 14% in the assay with Rattus norvegicus [2]; 66% in the assay on Rattus norvegicus [3]; 68% with Rattus norvegicus [4]; 0% with Rattus norvegicus [5].

Regarding `CC(=O)C(C(C)=O)=C1SCCCS1`, the Protection in the assay on Rattus norvegicus [1] was found to be 0%; with Rattus norvegicus [2], 67%; in the assay with Rattus norvegicus [3], 27%; with Rattus norvegicus [4], 0%; with Rattus norvegicus [5] it was 0%.

For `N#CC(C(=O)c1ccccc1)=C1SCCS1`, the Protection in the assay on Rattus norvegicus [1] is 0%; with Rattus norvegicus [2] it was 31%; in the assay on Rattus norvegicus [3], 0%; in the assay on Rattus norvegicus [4], 0%; in the assay with Rattus norvegicus [5], 0%.

As for `N#CC(C(=O)c1ccc(Cl)cc1)=C1SCCCS1`, the Protection was 0% with Rattus norvegicus [1]; 0% in the assay with Rattus norvegicus [2]; 63% in the assay with Rattus norvegicus [3]; 0% with Rattus norvegicus [4]; 0% in the assay with Rattus norvegicus [5].

For the compound `CCN(CC)C(=S)SC(C(=O)c1ccc(C)cc1)=C1SCCS1`, the Protection in the assay with Rattus norvegicus [1] amounted to 0%; with Rattus norvegicus [2], 0%; with Rattus norvegicus [3], 56%; in the assay with Rattus norvegicus [4], 93%; in the assay with Rattus norvegicus [5], 70%.

As to `O=C(C(C(=O)c1ccccc1)=C1SCCS1)c1ccccc1`, the Protection with Rattus norvegicus [1] is 0%; in the assay on Rattus norvegicus [2] it was 34%; with Rattus norvegicus [3], 0%; in the assay on Rattus norvegicus [4], 0%; in the assay with Rattus norvegicus [5] it was 8%.

For `CCOC(=O)C(C(=O)OCC)=C1SCCS1`, the Protection is reported as 0% in the assay on Rattus norvegicus [1]; 0% in the assay with Rattus norvegicus [2]; 0% in the assay on Rattus norvegicus [3]; 2% with Rattus norvegicus [4]; 39% with Rattus norvegicus [5].

For `CCN(CC)C(=S)SC(C(=O)c1ccc(Br)cc1)=C1SCCCS1`, the Protection is reported as 0% in the assay on Rattus norvegicus [1]; 0% in the assay with Rattus norvegicus [2]; 38% with Rattus norvegicus [3]; 0% in the assay on Rattus norvegicus [4]; 20% in the assay with Rattus norvegicus [5].

`CCN(CC)C(=S)SC(C(=O)c1ccc(Cl)cc1)=C1SCCCS1`: the Protection in the assay on Rattus norvegicus [1] is 0%; with Rattus norvegicus [2], 37%; in the assay with Rattus norvegicus [3], 85%; in the assay on Rattus norvegicus [4] it was 26%; with Rattus norvegicus [5], 6%.

Regarding `N#CC(C(=O)c1ccc(Cl)cc1)=C1SCCS1`, the Protection in the assay with Rattus norvegicus [1], with Rattus norvegicus [2], in the assay with Rattus norvegicus [3], with Rattus norvegicus [4] and in the assay with Rattus norvegicus [5] was 0% throughout.

`CCOC(=O)C(C(=O)c1ccccc1)=C1SCCS1`: the Protection was 0% with Rattus norvegicus [1]; 0% in the assay on Rattus norvegicus [2]; 0% in the assay with Rattus norvegicus [3]; 0% in the assay with Rattus norvegicus [4]; 29% in the assay with Rattus norvegicus [5].

The values above are taken from ChEMBL document CHEMBL1127911, “Synthesis of sulphur heterocycles as hepatoprotectants : part I” (1994).
